Tests used:
Test in all cases: KINOMEscan kinase binding assay (Eurofins/DiscoveRx), % Ctrl
kinases [1] = target: T1, kinases (Homo sapiens, UniProt P00533, DEL746-750); conditions: 1 μM; EGFR(E746-A750del)
T1 construct: purchased Eurofins/DiscoveRx; host or cells: E. coli BL21-derived host (T7 phage display) for most kinases; HEK-293 for the rest
Method in brief: (§1)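 Read-out is qPCR of kinase eluted from ligand-coated streptavidin beads after 1 h room-temperature competition with test compound. Values are % Ctrl at the tested concentration, lower meaning tighter binding.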

kinases [2] = target: T2, kinases (Homo sapiens, UniProt P00519, Q252H); conditions: 1 μM
T2 construct: purchased Eurofins/DiscoveRx; host or cells: E. coli BL21-derived host (T7 phage display) for most kinases; HEK-293 for the rest
Method in brief: as §1

kinases [3] = conditions: 1 μM
Method in brief: as §1

kinases [4] = target: T3, kinases (Homo sapiens, UniProt P00533, G719S); conditions: 1 μM; EGFR(G719S)
T3 construct: purchased Eurofins/DiscoveRx; host or cells: E. coli BL21-derived host (T7 phage display) for most kinases; HEK-293 for the rest
Method in brief: as §1

kinases [5] = target: T4, kinases (Homo sapiens, UniProt P00533, L858R); conditions: 1 μM; EGFR(L858R)
T4 construct: purchased Eurofins/DiscoveRx; host or cells: E. coli BL21-derived host (T7 phage display) for most kinases; HEK-293 for the rest
Method in brief: as §1

kinases [6] = target: T5, kinases (Homo sapiens, UniProt P35916); conditions: 1 μM; FLT4
T5 construct: purchased Eurofins/DiscoveRx; host or cells: E. coli BL21-derived host (T7 phage display) for most kinases; HEK-293 for the rest
T5 sequence (P35916 25-1363): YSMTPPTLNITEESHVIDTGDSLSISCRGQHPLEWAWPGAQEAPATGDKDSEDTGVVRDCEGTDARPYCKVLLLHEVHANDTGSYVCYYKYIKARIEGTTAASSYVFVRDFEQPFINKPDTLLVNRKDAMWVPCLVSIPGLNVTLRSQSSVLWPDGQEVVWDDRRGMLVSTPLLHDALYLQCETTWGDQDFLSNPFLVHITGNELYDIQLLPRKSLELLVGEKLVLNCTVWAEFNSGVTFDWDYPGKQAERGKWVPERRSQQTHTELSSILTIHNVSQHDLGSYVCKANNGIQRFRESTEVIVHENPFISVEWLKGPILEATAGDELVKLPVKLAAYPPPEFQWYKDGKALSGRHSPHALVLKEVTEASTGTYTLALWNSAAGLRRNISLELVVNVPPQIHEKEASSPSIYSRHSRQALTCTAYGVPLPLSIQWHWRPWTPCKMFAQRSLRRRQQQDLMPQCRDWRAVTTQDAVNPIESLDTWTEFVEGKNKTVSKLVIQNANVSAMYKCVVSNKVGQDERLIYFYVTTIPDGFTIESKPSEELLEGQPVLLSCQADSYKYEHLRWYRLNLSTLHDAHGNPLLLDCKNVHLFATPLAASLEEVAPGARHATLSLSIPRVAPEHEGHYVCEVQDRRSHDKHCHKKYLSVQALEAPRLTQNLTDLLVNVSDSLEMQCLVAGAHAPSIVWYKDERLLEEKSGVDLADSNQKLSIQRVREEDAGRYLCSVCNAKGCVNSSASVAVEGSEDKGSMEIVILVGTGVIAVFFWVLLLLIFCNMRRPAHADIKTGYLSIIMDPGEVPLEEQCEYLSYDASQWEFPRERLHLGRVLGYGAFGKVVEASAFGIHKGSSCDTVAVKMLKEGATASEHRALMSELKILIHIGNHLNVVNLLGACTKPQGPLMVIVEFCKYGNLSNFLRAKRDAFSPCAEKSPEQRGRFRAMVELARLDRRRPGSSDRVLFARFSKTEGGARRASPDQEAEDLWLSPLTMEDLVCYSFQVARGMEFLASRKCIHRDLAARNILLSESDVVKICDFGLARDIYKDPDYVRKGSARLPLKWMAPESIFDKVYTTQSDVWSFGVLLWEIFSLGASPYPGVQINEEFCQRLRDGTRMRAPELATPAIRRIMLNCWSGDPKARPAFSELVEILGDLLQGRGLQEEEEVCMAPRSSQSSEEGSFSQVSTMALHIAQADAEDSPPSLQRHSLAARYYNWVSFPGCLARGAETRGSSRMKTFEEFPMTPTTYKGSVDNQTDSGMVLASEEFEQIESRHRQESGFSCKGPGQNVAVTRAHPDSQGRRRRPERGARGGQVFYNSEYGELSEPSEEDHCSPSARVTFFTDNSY
Method in brief: as §1

kinases [7] = target: T6, kinases (Homo sapiens, UniProt P17948); conditions: 1 μM; FLT1
T6 construct: purchased Eurofins/DiscoveRx; host or cells: E. coli BL21-derived host (T7 phage display) for most kinases; HEK-293 for the rest
T6 sequence (P17948 27-1338): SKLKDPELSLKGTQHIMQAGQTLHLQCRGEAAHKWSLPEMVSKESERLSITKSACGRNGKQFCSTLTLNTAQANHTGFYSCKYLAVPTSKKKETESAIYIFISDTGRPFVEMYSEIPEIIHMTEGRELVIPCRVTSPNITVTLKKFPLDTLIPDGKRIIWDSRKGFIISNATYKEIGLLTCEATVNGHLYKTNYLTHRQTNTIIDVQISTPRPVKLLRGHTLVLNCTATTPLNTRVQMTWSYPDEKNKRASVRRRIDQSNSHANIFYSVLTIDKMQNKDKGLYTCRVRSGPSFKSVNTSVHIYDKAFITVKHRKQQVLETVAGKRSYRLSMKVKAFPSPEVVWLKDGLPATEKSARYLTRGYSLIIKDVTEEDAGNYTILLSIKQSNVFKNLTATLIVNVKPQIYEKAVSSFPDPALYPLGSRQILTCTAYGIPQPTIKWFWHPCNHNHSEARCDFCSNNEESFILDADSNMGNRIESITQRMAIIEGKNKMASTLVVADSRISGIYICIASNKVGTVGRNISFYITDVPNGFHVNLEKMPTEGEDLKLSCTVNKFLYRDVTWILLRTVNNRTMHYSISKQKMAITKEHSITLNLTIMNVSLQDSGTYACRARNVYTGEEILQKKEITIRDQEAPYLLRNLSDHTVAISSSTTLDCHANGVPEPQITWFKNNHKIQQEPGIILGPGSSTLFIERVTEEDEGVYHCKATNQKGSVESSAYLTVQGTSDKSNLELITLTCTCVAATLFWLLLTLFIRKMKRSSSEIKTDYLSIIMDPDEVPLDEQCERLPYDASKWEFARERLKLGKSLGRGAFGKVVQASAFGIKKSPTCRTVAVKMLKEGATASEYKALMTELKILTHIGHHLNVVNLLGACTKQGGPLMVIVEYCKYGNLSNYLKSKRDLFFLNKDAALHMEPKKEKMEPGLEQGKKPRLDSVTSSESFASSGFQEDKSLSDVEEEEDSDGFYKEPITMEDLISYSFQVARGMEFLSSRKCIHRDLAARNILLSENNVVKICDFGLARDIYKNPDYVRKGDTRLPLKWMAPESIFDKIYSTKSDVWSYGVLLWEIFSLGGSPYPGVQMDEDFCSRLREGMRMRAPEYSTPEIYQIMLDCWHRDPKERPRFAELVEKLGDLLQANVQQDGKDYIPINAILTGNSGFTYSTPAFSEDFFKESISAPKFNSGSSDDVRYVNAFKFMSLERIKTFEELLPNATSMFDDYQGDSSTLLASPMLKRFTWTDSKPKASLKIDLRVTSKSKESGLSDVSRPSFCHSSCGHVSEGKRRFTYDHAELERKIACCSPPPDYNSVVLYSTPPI
Method in brief: as §1

Structure (SMILES) | % Ctrl, EGFR(E746-A750del) (kinases [1]) [% Ctrl] | % Ctrl, ABL1(Q252H)-nonphosphorylated (kinases [2]) [% Ctrl] | % Ctrl, ABL1(Q252H)-phosphorylated (kinases [2]) [% Ctrl] | % Ctrl, EGFR(L747-E749del, A750P) (kinases [3]) [% Ctrl] | % Ctrl, EGFR(L747-S752del, P753S) (kinases [3]) [% Ctrl] | % Ctrl, EGFR(L747-T751del, Sins) (kinases [3]) [% Ctrl] | % Ctrl, FLT3(ITD) (kinases [3]) [% Ctrl] | % Ctrl, FLT3(ITD, D835V) (kinases [3]) [% Ctrl] | % Ctrl, FLT3(ITD, F691L) (kinases [3]) [% Ctrl] | % Ctrl, EGFR(G719S) (kinases [4]) [% Ctrl] | % Ctrl, EGFR(L858R) (kinases [5]) [% Ctrl] | % Ctrl, FLT4 (kinases [6]) [% Ctrl] | % Ctrl, FLT1 (kinases [7]) [% Ctrl]
Cc1cc2c([nH]1)/C=C1\C(=O)Nc3ccc(cc31)OCCOCCNC2=O [Ex. 129, [16a(17)Z]-2-methyl-6,7,9,10-tetrahydro-1H-12,14-(ethanediylidene)dipyrrolo[3,2-i:3′,4′-l][1,4,7]dioxazacyclopentadecine-4,16(5H,15H)-dione] | 100 | 87 | 86 | 88 | 98 | 85 | 32 | 4.3 | 40 | 97 | 100 | 83 | 99
Cc1cc2c([nH]1)/C=C1\C(=O)Nc3ccc(cc31)CN(C)C(=O)COCCNC2=O [Ex.111, [17a(18)Z]-2,11-dimethyl-6,7,11,12-tetrahydro-1H-13,15-(ethanediylidene)dipyrrolo[3,2-f:3′,4′-i][1,4,14]oxadiazacyclohexadecine-4,10,17(5H,9H,16H)-trione] | 92 | 75 | 57 | 83 | 100 | 59 | 6.9 | 0.45 | 5.8 | 77 | 78 | 74 | 46
Cc1cc2c([nH]1)/C=C1\C(=O)Nc3cc(Cl)c(cc31)OCCO[C@@H](C(=O)N[C@@H]1CCNC1)CN(C)C2=O [Ex. 136, [7R,16a(17)Z]-19-chloro-2,5-dimethyl-4,16-dioxo-N-[(3R)-pyrrolidin-3-yl]-4,5,6,7,9,10,15,16-octahydro-1H-12,14-(ethanediylidene)dipyrrolo[3,2-i:3′,4′-l][1,4,7]dioxazacyclopentadecine-7-carboxamide] | 76 | 24 | 14 | 80 | 82 | 94 | 23 | 2.8 | 5.7 | 92 | 90 | 100 | 97
Cc1cc2c([nH]1)/C=C1\C(=O)Nc3ccc(cc31)-c1c(noc1C)COCCN(C)C2=O [Ex. 128, [3a(4)Z]-6,9,16-trimethyl-1,11-dihydro-2H,13H-1,17-(ethanediylidene)[1,4]oxazolo[4,3-m]dipyrrolo[3,2-f:3′,4′-i][1,4]oxazacyclopentadecine-3,8(5H,9H)-dione] | 86 | 57 | 42 | 85 | 93 | 94 | 43 | 5.8 | 10 | 97 | 88 | 45 | 85
